From patent US9550763B2, “Heterocyclic ring and carbocyclic derivative” (Shionogi & Co., Ltd., priority 2012, dated 2017)

molecular target: human P2X3 receptor (Homo sapiens (Human), UniProt P56373); assay: Evaluation of human P2X3 receptor inhibitory activity (Test Example 1-2, FLIPR 384, 384-well, 150 nM ATP); format: cell-based; settings: human P2X3 receptor in C6BU-1 cells; Test Example 1-2 (compounds I-301 to I-483); read-out: P2X3 IC50
Method: Stably expressing cell line (C6BU-1 cell transfected with human P2X3 receptor gene (GenBank accession number Y07683) was used. The cells were seeded in a 384-well microtiter plate at a concentration of 3000 cells/well and cultured in the medium (7.0% fetal bovine serum, 7.0% horse serum, 1% antibiotic and antifungal in DMEM) for one day at 37° C. under 5% carbon dioxide atmosphere. The medium was replaced with 4 μM Fluo-3-AM solution (20 mM HEPES, […], 5.27 mM KCl, 0.9 mM MgCl2, 1.26 mM CaCl2, 5.6 mM D-glucose, 2.5 mM probenecid, 0.5% BSA, and 0.04% Pluronic F-127, pH 7.5) and incubated at 37° C. under 5% dioxide carbon atmosphere for one hour. The plate was washed with washing buffer (20 mM HEPES, 137 mM NaCl, 5.27 mM KCl, 0.9 mM MgCl2, 1.26 mM CaCl2, 5.6 mM D-glucose, 2.5 mM probenecid, pH7.5), and each well was added with 20 μL of this buffer. The plate was placed in High-Throughput Screening System FLIPR 384 (Molecular Device Co.). Measurement of fluorescence intensity by FLIPR 384 was started, and 20 μL of DMSO solutions containing different concentrations of the test compound as prepared by dilution with dilution buffer (20 mM HEPES, 137 mM NaCl, 5.27 mM KCl, 0.9 mM MgCl2, 1.26 mM CaCl2, 5.6 mM D-glucose, 2.5 mM probenecid, 0.1% Pluronic F-127, pH 7.5) were dispensed to each well through the built-in automatic dispenser. Five minutes after, 150 nM ATP solution (25 μL) prepared by dilution with the dilution buffer was dispensed through the built-in automatic dispenser, and the measurement of fluorescence intensity was continued for 4 min. For each well, the specific maximum fluorescence intensity was calculated as the ratio of the maximum fluorescence intensity after addition of the ATP solution to the fluorescence intensity at the starting of the measurement. The 50% inhibitory concentration (IC50) was calculated under the assumption that the specific maximum fluorescence intensity without test compound is 0% inhibition and that the specific maximum fluorescence intensity when the dilution buffer was added in place of ATP solution is 100% inhibition, to evaluate the inhibitory activity of the test compound. The specific maximum fluorescence intensity and IC50 were calculated using Spotfire (Science & Technology Systems, Inc.)
The data of the compounds I-001 to I-300 are the results by the method mentioned in Test Example 1-1, and the data of the compounds I-301 to I-483 are the results by the method mentioned in Test Example 1-2.

Chain of human P2X3 receptor (P56373 whole entry): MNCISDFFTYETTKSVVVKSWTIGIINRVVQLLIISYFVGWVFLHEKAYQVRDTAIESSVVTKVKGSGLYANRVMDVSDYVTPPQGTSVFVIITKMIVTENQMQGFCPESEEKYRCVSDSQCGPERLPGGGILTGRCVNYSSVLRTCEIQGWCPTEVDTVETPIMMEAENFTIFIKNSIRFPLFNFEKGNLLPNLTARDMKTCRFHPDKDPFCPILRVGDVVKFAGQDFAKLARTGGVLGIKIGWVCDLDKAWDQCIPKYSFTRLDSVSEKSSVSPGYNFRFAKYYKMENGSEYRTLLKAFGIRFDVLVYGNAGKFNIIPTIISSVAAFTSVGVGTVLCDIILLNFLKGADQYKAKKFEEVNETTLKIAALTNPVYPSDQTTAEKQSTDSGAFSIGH

| SMILES | IC50 [µM] |
| --- | --- |
| O=C(NC1CCOCC1)c1cn(Cc2ccc(Cl)cc2)c(Nc2ccc3nc(C(F)F)sc3c2)nc1=O [Compound I-359] | 0.057 |
| COC(=O)CCCn1c(=O)cc(Nc2ccc(Oc3ccc(F)cn3)c(C)n2)n(Cc2ccc(Cl)cc2)c1=O [Compound I-360] | 0.006 |
| Cc1nc(Nc2cc(=O)n(CCCC(=O)O)c(=O)n2Cc2ccc(Cl)cc2)ccc1Oc1ccc(F)cn1 [Compound I-361] | 0.032 |
| COC(=O)[C@@H](C)Cn1c(=O)cc(Nc2ccc(Oc3ccc(F)cn3)c(C)n2)n(Cc2ccc(Cl)cc2)c1=O [Compound I-362] | 0.007 |
| Cc1nc(Nc2cc(=O)n(C[C@H](C)C(=O)O)c(=O)n2Cc2ccc(Cl)cc2)ccc1Oc1ccc(F)cn1 [Compound I-363] | 0.008 |
| COC(=O)C(C)(C)Cn1c(=O)cc(Nc2ccc(Oc3ccc(F)cn3)c(C)n2)n(Cc2ccc(Cl)cc2)c1=O [Compound I-364] | 0.004 |
| Cc1nc(Nc2cc(=O)n(CC(C)(C)C(=O)O)c(=O)n2Cc2ccc(Cl)cc2)ccc1Oc1ccc(F)cn1 [Compound I-365] | 0.005 |
| COC(=O)c1ccc(Oc2ccc(/N=c3\[nH]cc(C(C)C)c(=O)n3Cc3ccc(Cl)cc3)cc2)nc1 [Compound I-366] | 0.091 |
| COC(=O)c1cncc(Oc2ccc(/N=c3\[nH]cc(C(C)C)c(=O)n3Cc3ccc(Cl)cc3)cc2)c1 [Compound I-367] | 0.471 |
| O=C(NCc1ccco1)c1cn(Cc2ccc(Cl)cc2)c(Nc2ccc(Oc3cccc(F)n3)cc2)nc1=O [Compound I-369] | 0.12 |
| CC(=O)NCCNC(=O)c1cn(Cc2ccc(Cl)cc2)c(Nc2ccc(Oc3cccc(F)n3)cc2)nc1=O [Compound I-370] | 0.384 |
| Cc1cc(NC(=O)c2cn(Cc3ccc(Cl)cc3)c(Nc3ccc(Oc4cccc(F)n4)cc3)nc2=O)no1 [Compound I-371] | 0.08 |
| O=C(Nc1ccon1)c1cn(Cc2ccc(Cl)cc2)c(Nc2ccc(Oc3cccc(F)n3)cc2)nc1=O [Compound I-372] | 0.051 |
| COCCCNC(=O)c1cn(Cc2ccc(Cl)cc2)c(Nc2ccc(Oc3cccc(F)n3)cc2)nc1=O [Compound I-373] | 0.136 |
| CC(C)CNC(=O)c1cn(Cc2ccc(Cl)cc2)c(Nc2ccc(Oc3cccc(F)n3)cc2)nc1=O [Compound I-374] | 0.046 |
| NC(=O)[C@H](CO)NC(=O)c1cn(Cc2ccc(Cl)cc2)c(Nc2ccc(Oc3cccc(F)n3)cc2)nc1=O [Compound I-375] | 0.004 |
| O=C(NC1CCCC1)c1cn(Cc2ccc(Cl)cc2)c(Nc2ccc(Oc3cccc(F)n3)cc2)nc1=O [Compound I-376] | 0.04 |
| Cc1noc(C)c1NC(=O)c1cn(Cc2ccc(Cl)cc2)c(Nc2ccc(Oc3cccc(F)n3)cc2)nc1=O [Compound I-377] | 0.037 |
| Cn1ccc(NC(=O)c2cn(Cc3ccc(Cl)cc3)c(Nc3ccc(Oc4cccc(F)n4)cc3)nc2=O)n1 [Compound I-378] | 0.02 |
| O=C(NCC1COCCO1)c1cn(Cc2ccc(Cl)cc2)c(Nc2ccc(Oc3cccc(F)n3)cc2)nc1=O (stereo not shown) [Compound I-379] | 0.096 |
| CC(C)[C@H](NC(=O)c1cn(Cc2ccc(Cl)cc2)c(Nc2ccc(Oc3cccc(F)n3)cc2)nc1=O)C(N)=O [Compound I-380] | 0.004 |
| C[C@H](NC(=O)c1cn(Cc2ccc(Cl)cc2)c(Nc2ccc(Oc3cccc(F)n3)cc2)nc1=O)C(N)=O [Compound I-381] | 0.004 |
| O=C(NCC(=O)N1CCCCC1)c1cn(Cc2ccc(Cl)cc2)c(Nc2ccc(Oc3cccc(F)n3)cc2)nc1=O [Compound I-382] | 0.009 |
| O=C(NC1CCCOC1)c1cn(Cc2ccc(Cl)cc2)c(Nc2ccc(Oc3cccc(F)n3)cc2)nc1=O (stereo not shown) [Compound I-383] | 0.013 |
| O=C(NCc1ncco1)c1cn(Cc2ccc(Cl)cc2)c(Nc2ccc(Oc3cccc(F)n3)cc2)nc1=O [Compound I-384] | 0.06 |
| CC1(NC(=O)c2cn(Cc3ccc(Cl)cc3)c(Nc3ccc(Oc4cccc(F)n4)cc3)nc2=O)CCOCC1 [Compound I-385] | 0.016 |
| O=C(NC[C@@H]1CCCO1)c1cn(Cc2ccc(Cl)cc2)c(Nc2ccc(Oc3cccc(F)n3)cc2)nc1=O [Compound I-386] | 0.015 |
| O=C(NC[C@H]1CCCO1)c1cn(Cc2ccc(Cl)cc2)c(Nc2ccc(Oc3cccc(F)n3)cc2)nc1=O [Compound I-387] | 0.014 |

| SMILES | IC50 [µM] |
| --- | --- |
| O=C(NCC1CCCCO1)c1cn(Cc2ccc(Cl)cc2)c(Nc2ccc(Oc3cccc(F)n3)cc2)nc1=O (stereo not shown) [Compound I-388] | 0.029 |
| O=C(NC1CCNC1=O)c1cn(Cc2ccc(Cl)cc2)c(Nc2ccc(Oc3cccc(F)n3)cc2)nc1=O (stereo not shown) [Compound I-389] | 0.01 |
| O=C(NC1(CO)CCOCC1)c1cn(Cc2ccc(Cl)cc2)c(Nc2ccc(Oc3cccc(F)n3)cc2)nc1=O [Compound I-390] | 0.059 |
| Cn1nccc1NC(=O)c1cn(Cc2ccc(Cl)cc2)c(Nc2ccc(Oc3cccc(F)n3)cc2)nc1=O [Compound I-391] | 0.03 |
| Cc1nc(CNC(=O)c2cn(Cc3ccc(Cl)cc3)c(Nc3ccc(Oc4cccc(F)n4)cc3)nc2=O)no1 [Compound I-392] | 0.128 |
| O=C(NCC1CCCC1)c1cn(Cc2ccc(Cl)cc2)c(Nc2ccc(Oc3cccc(F)n3)cc2)nc1=O [Compound I-393] | 0.11 |
| O=C(N[C@H]1COC[C@@H]1O)c1cn(Cc2ccc(Cl)cc2)c(Nc2ccc(Oc3cccc(F)n3)cc2)nc1=O [Compound I-394] | 0.011 |
| O=C(Nc1cn[nH]c1)c1cn(Cc2ccc(Cl)cc2)c(Nc2ccc(Oc3cccc(F)n3)cc2)nc1=O [Compound I-395] | 0.022 |
| O=C(NCC1CCOC1)c1cn(Cc2ccc(Cl)cc2)c(Nc2ccc(Oc3cccc(F)n3)cc2)nc1=O (stereo not shown) [Compound I-396] | 0.025 |
| O=C(Nc1cnoc1)c1cn(Cc2ccc(Cl)cc2)c(Nc2ccc(Oc3cccc(F)n3)cc2)nc1=O [Compound I-397] | 0.056 |
| O=C(N[C@@H]1CCOC1)c1cn(Cc2ccc(Cl)cc2)c(Nc2ccc(Oc3cccc(F)n3)cc2)nc1=O [Compound I-398] | 0.022 |
| O=c1c(-c2nnc(CO)o2)c[nH]/c(=N\c2ccc(Oc3ccon3)cc2)n1Cc1ccc(Cl)cc1 [Compound I-399] | 0.036 |
| CC(C)c1c[nH]/c(=N\c2ccc(Oc3ccc(C(=O)O)cn3)cc2)n(Cc2ccc(Cl)cc2)c1=O [Compound I-400] | 0.016 |
| CC(C)c1c[nH]/c(=N\c2ccc(Oc3cncc(C(=O)O)c3)cc2)n(Cc2ccc(Cl)cc2)c1=O [Compound I-401] | 0.012 |
| O=C(NC1CCOCC1)c1cn(Cc2ccc(F)cc2F)c(Nc2ccc(Oc3cccc(F)n3)cc2)nc1=O [Compound I-402] | 0.009 |
| COc1cn(Cc2ccc(Cl)cc2)c(Nc2ccc(Oc3cccc(C(N)=O)n3)cc2)nc1=O [Compound I-403] | 0.243 |
| COc1cn(Cc2ccc(Cl)cc2)c(Nc2ccc(Oc3cccc(C(=O)O)n3)cc2)nc1=O [Compound I-404] | 0.102 |
| Cc1nc(Nc2cc(=O)n(CC(F)(F)C(=O)O)c(=O)n2Cc2ccc(Cl)cc2)ccc1Oc1ccc(F)cn1 [Compound I-405] | 0.005 |
| C#CCNC(=O)c1c[nH]/c(=N\c2ccc(Oc3cccc(F)n3)cc2)n(Cc2ccc(Cl)cc2)c1=O [Compound I-406] | 0.008 |
| O=C(NCC1CC1)c1c[nH]/c(=N\c2ccc(Oc3cccc(F)n3)cc2)n(Cc2ccc(Cl)cc2)c1=O [Compound I-407] | 0.068 |
| N#Cc1cccc(Oc2ccc(/N=c3\[nH]cc(-c4ccccc4)c(=O)n3Cc3ccc(Cl)cc3)cc2)n1 [Compound I-408, 1-(4-chlorobenzyl)-2-[4-(6-cyano-2-pyridyloxy)phenylamino]-5-phenylpyrimidin-6(1H)-one] | 0.407 |
| CC(C)c1c[nH]/c(=N\c2ccc(Oc3ccnc(C(=O)O)c3)cc2)n(Cc2ccc(Cl)cc2)c1=O [Compound I-409] | 0.024 |
| CCOC(=O)c1cnc(Oc2ccc(/N=c3\[nH]cc(C(C)C)c(=O)n3Cc3ccc(Cl)cc3)cc2)s1 [Compound I-410] | 0.626 |
| CCC(=O)Nc1c[nH]/c(=N\c2ccc(Oc3ccc(C(F)(F)F)nn3)cc2)n(Cc2ccc(Cl)cc2)c1=O [Compound I-411] | 0.01 |
| CC(C)c1c[nH]/c(=N\c2ccc(Oc3ncc(C(=O)O)s3)cc2)n(Cc2ccc(Cl)cc2)c1=O [Compound I-412] | 0.009 |
| Cc1c[nH]c2cc(Nc3ncc(NC(=O)C4CCOCC4)c(=O)n3Cc3ccc(Cl)cc3)ccc12 [Compound I-413] | 0.897 |
| Cc1c[nH]c2ccc(Nc3ncc(NC(=O)C4CCOCC4)c(=O)n3Cc3ccc(Cl)cc3)cc12 [Compound I-414] | 0.392 |
